Measurements as given in US20230043863A1, “HETEROAROMATIC DERIVATIVES FOR USE AS REGULATOR, PREPARATION METHOD THEREFOR AND USE THEREOF” (JIANGSU HANSOH PHARMACEUTICAL GROUP CO., LTD., priority 2018, published 2023).
Read-outs that look alike come from different tables or passages of the source.

Experiments:
JAK1 = JAK1 (Homo sapiens, UniProt P23458); assay: JAK kinase activity inhibition, TR-FRET (JAK1); assay type: biochemical; conditions: TR-FRET kinase assay
Outline: (§1)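 Recombinant kinase at 0.1-20 nM, peptide substrate, ATP; room temperature, 0.5-5 h; EDTA stop, labeled-antibody TR-FRET readout; IC50 by curve fit.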

TYK2 = TYK2 (Homo sapiens, UniProt P29597); assay: JAK kinase activity inhibition, TR-FRET (TYK2); assay type: biochemical; conditions: TR-FRET kinase assay
Outline: as §1

[1] = test system: JAK-STAT signal pathway of U266 cells; assay: Inhibition of cellular JAK-STAT signal pathway (STAT3 phosphorylation) in U266 cells; assay type: cell-based, human; conditions: Homo sapiens, U-266, INF-a 1000 U/mL stimulation
Procedure: The objective of the test is to test the inhibitory activity of the compound on the cellular JAK-STAT signaling pathway.
U266 cell line was used in this experiment, by activating the JAK-STAT signaling pathway through INF-a stimulation, the inhibitory activity of the compound on its downstream STAT3 phosphorylation was detected, and the half inhibitory concentration IC50 of the compound on the JAK-STAT signaling pathway activity was obtained.
3-12 μL of U266 cell line was spread into the 384-well detection plate, and the number of cells in each well was 100-300 K, followed by addition of 2 μL of the compound solution serially diluted. The plate was incubated for 2 hours with shaking at 350 rpm at room temperature. After 2 hours, 2 μL of INF-a with a final concentration of 1000 U/mL was added. The plate was shaken at room temperature for 15 minutes. 2-5 μL (5×) LANCE Ultra Lysis Buffer 2 solution was added and the plate was shaken at room temperature for 2 hours. After 2 hours, 5 μL of LANCE Ultra Eu-labeled Anti-STAT3 Antibody (PerkinElmer) with a final concentration of 0.5 nM and LANCE Ultra ULight-labeled Anti-STAT3 Antibody (PerkinElmer) with a final concentration of 5 nM were added, and the plate was incubated overnight at room temperature. The fluorescence signal value at 665 nm of each well was measured with the microplate reader, and the inhibition rate was calculated from the fluorescence signal value. According to the inhibition rate of different concentrations, the IC50 of the compound was obtained by curve fitting.
The percentage inhibition data of the wells treated with the compound was calculated with the positive control wells (DMSO control wells) and negative control wells (no kinase added) on the plate {% inhibition rate=100-[(test compound value-negative control value)]/(Positive control value-negative control value)×100}. IC50 value was calculated by using GraphPad prism to fit the data of different concentrations and corresponding percentage inhibition rates to a 4-parameter non-linear logic formula.

[2] = Balb/C mouse pharmacokinetics (plasma, colon, ileum); assay type: in vivo; conditions: male, po, Balb/C mice, p.o. 5 mg/kg; for Cmax: read-out: Blood concentration Cmax; for AUC(0-t): read-out: Curve area AUC0-t; for MRT: read-out: Mean detention time MRT; for Tmax: read-out: Time to peak tmax; for AUC(0-inf): read-out: Curve area AUC0-∞; for half-life: read-out: Half life period t1/2 (converted)
Description: Balb/C mouse was used as the test animal, the pharmacokinetic behavior in mice (plasma and colon, ileum tissue) was studied after oral administering the embodiment 1, embodiment 60, embodiment 169, embodiment 170, embodiment 171, embodiment 179, embodiment 191, embodiment 213, embodiment 214, embodiment 237, embodiment 238, embodiment 244, embodiment 246, embodiment 247, embodiment 257, embodiment 260, embodiment 262, embodiment 263, embodiment 267, embodiment 277, embodiment 278, embodiment 279, embodiment 288, embodiment 295, embodiment 299 and embodiment 301 at a dose of 5 mg/kg. After analyzing the drug concentration in the colon and ileum, the ratio of the drug concentration in the colon to that in ileum, and the ratio of the drug concentration in the colon to that in the plasma, the compounds with excellent PK were selected for further research.
12 Balb/C mice in each group, male, Shanghai Jiesjie Experimental Animal Co., Ltd., animal production license number (SCXK (Shanghai) 2013-0006 N0.311620400001794).
12 Balb/C mice in each group, male; p.o. after one night fast; the dose was 5 mg/kg; the administration volume was 10 mL/kg.
At 0, 0.5, 1, 2, 3, 5 and 7 hours before and after the administration, the mice were executed by CO2 and 0.2 mL of blood was collected from the heart, placed in an EDTA-K2 test tube, and centrifuged at 6000 rpm at 4° C. for 6 minutes to separate the plasma, which was then stored at −80° C. The ileum was taken close to the cecum end with a length of about 4-5 cm, and the colon was also taken close to the cecum end with a length of about 2-3 cm, weighed and placed in a 2 mL centrifuge tube, then stored at −80° C.
1) 40 uL of plasma sample was precipitated by adding 160 uL of acetonitrile, mixed and centrifuged at 3500×g for 5-20 minutes.
2) 30 μL of plasma and intestinal homogenate sample were precipitated by adding 90 of acetonitrile containing internal standard (100 ng/mL), mixed and centrifuged at 13000 rpm for 8 minutes.
3) 70 μL of the supernatant solution after treatment was collected and 70 μL of water was added thereto, vortexed and mixed for 10 minutes, and then 20 μL was collected to analyze the concentration of the test compound by LC/MS/MS. LC/MS/MS analysis instrument: AB Sciex API 4000 Qtrap.
Liquid phase conditions: Shimadzu LC-20AD Pump
Chromatographic column: Agilent ZORBAX XDB-C18 (50×2.1 mm, 3.5 μm) mobile phase: 0.1% formic acid aqueous solution as A solution, acetonitrile as B solution
Elution time: 0-4.0 minutes, the eluent is as follows:
The main pharmacokinetic parameters were calculated with WinNonlin 6.1, and the results of mouse pharmacokinetic experiments are shown in Table 3:
NA refers to none detected or not being tested (the detection limit of blood concentration was 1 ng/mL, when the Cmax in the blood test is NA, then NA in the blood test index refers to none detected; when the Cmax in the blood test is higher than the quantitative limit 1 ng/mL, then NA in the blood test index refers to not being tested; NA in the tissues (colon and ileum) refers to not being tested).

JAK1, sequence (P23458 whole entry): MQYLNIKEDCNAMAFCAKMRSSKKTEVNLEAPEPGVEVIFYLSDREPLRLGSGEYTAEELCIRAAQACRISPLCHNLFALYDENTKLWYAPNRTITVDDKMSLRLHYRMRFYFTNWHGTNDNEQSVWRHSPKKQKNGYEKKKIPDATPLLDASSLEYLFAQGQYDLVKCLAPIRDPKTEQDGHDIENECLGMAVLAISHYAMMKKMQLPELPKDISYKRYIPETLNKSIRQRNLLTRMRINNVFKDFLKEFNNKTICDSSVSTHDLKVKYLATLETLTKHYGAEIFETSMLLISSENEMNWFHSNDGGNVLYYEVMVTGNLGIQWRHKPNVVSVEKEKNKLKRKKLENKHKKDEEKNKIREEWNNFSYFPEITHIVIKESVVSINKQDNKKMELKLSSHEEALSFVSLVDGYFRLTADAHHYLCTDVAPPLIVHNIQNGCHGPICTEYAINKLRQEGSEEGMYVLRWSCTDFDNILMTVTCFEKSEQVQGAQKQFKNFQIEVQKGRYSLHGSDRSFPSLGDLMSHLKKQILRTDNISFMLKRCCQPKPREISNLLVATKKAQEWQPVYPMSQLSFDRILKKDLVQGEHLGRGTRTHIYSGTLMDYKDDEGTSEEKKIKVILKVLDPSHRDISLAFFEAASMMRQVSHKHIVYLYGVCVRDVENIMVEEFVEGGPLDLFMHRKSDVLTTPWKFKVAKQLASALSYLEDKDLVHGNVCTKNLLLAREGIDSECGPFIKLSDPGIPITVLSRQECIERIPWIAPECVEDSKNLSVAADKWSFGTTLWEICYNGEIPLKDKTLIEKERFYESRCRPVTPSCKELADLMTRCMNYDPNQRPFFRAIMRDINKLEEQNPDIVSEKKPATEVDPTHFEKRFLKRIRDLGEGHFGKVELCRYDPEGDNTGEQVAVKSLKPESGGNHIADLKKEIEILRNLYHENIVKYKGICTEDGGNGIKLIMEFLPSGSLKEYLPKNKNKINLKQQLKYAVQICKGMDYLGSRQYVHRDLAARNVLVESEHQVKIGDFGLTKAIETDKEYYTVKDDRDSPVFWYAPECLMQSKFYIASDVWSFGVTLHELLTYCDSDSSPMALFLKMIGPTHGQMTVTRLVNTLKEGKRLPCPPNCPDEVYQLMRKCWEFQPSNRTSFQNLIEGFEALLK
TYK2, sequence (P29597 whole entry): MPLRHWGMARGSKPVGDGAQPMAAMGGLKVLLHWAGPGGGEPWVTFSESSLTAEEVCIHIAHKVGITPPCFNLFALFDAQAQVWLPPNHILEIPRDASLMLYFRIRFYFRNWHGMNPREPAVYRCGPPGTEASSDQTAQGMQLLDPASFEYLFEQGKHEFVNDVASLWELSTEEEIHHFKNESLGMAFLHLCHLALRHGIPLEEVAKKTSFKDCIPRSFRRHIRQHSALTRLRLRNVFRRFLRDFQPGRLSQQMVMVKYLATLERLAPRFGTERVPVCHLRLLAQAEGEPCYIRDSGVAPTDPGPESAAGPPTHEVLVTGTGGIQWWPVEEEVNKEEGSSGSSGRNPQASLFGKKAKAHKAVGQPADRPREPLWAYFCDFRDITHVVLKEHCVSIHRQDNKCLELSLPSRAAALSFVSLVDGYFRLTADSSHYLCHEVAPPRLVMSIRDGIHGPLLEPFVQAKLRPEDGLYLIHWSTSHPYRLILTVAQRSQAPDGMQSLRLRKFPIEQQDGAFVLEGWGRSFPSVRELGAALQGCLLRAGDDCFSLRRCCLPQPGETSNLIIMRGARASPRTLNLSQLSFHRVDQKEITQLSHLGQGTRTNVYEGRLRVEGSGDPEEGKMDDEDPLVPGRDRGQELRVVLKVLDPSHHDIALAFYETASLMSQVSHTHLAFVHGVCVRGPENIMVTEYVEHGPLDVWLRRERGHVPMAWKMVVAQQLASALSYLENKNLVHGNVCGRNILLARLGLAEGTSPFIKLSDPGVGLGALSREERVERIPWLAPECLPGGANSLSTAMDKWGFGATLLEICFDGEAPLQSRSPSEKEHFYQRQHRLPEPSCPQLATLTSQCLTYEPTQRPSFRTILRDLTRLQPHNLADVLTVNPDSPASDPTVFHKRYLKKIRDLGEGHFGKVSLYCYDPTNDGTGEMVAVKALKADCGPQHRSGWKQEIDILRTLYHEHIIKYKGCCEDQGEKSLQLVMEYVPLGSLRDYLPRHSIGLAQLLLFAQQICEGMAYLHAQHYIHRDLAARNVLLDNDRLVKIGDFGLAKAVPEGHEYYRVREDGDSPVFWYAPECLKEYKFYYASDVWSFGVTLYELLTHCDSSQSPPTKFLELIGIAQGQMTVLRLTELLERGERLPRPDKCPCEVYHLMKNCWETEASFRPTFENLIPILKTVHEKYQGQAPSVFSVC

Row | SMILES | IC50 (JAK1) [nM] | IC50 (TYK2) [nM] | IC50 [1] [nM] | Cmax ([2]; plasma, blood) [ng/mL] | AUC(0-t) ([2]; plasma, blood) [ng·h/mL] | MRT ([2]; plasma, blood) [h] | Tmax ([2]; plasma, blood) [h] | Cmax ([2]; colon) [ng/mL] | AUC(0-t) ([2]; colon) [ng·h/mL] | MRT ([2]; colon) [h] | Tmax ([2]; colon) [h] | Cmax ([2]; ileum) [ng/mL] | AUC(0-t) ([2]; ileum) [ng·h/mL] | AUC(0-inf) ([2]; ileum) [ng·h/mL] | half-life ([2]; ileum) [h] | MRT ([2]; ileum) [h] | Tmax ([2]; ileum) [h] | further results
1 | Cc1cc(Nc2nc(N[C@@H]3C[C@H]4CCC[C@@H](C3)N4C(=O)c3nccn3C)nc3sccc23)n[nH]1 [Embodiment 263, (1-methyl-1H-imidazol-2-yl) ((3-exo)-3-((4-((5-methyl-1H-pyrazol-3-yl)amino)thieno[2,3-d]pyrimidin-2-yl)amino)-9-azabicyclo[3.3.1]non-9-yl)methanone] | 0.11 | 0.22 | 4.07 | 12.7 | 57.6 | 3.51 | 3 | 5540 | 15500 | 3.58 | 3 | 5490 | 9910 | 9940 | 0.82 | 1.36 | 1 | 
2 | Cc1cc(Nc2nc(N[C@@H]3C[C@H]4CC[C@@H](C3)N4C(=O)CN3CCOCC3)nc3sccc23)n[nH]1 [Embodiment 244, 1-((3-exo)-3-((4-((5-methyl-1H-pyrazol-3-yl)amino)thieno[2,3-d]pyrimidin-2-yl)amino)-8-azabicyclo[3.2.1]oct-8-yl)-2-morpholinoethane-1-one] | 1.15 | 2.45 | 3.79 | 12 | 18 | 2.12 | 3 | 1190 | 4900 | 4.38 | 7 | 9010 | 22600 | 22600 | 0.66 | 1.83 | 1 | 
3 | Cc1cc(Nc2nc(N[C@@H]3C[C@@H]4CN(CCC#N)C[C@@H]4C3)nc3ccsc23)n[nH]1 [Embodiment 299, 3-(cis-5-((4-((5-methyl-1H-pyrazol-3-yl)amino)thieno[3,2-d]pyrimidin-2-yl)amino)hexahydrocyclopentadieno[c]pyrrole-2(1H)-yl)propionitrile] | 0.28 | 0.56 | 2.46 | 6.01 | 10.6 | 1.92 | 0.5 | 295 | 948 | 4.94 | 7 | 531 | 1320 | 1350 | 0.89 | 3.37 | 3 | AUC(0-inf) ([2]; plasma, blood): 17.8 ng·h/mL; half-life ([2]; plasma, blood): 3.76 h
4 | Cc1cc(Nc2nc(N[C@@H]3C[C@H]4CCC[C@@H](C3)N4S(=O)(=O)c3ccccn3)nc3sccc23)n[nH]1 [Embodiment 267] | 0.13 | 0.39 | 18 |  |  |  |  | 1270 | 5610 | 4.4 | 5 | 12200 | 20700 | 20700 | 0.53 | 1.24 | 1 | 
5 | Cc1cc(Nc2nc(N[C@@H]3C[C@H]4CCC[C@@H](C3)N4C(=O)c3ccncc3)nc3sccc23)n[nH]1 [Embodiment 262, ((3-exo)-3-((4-((5-methyl-1H-pyrazol-3-yl)amino)thieno[2,3-d]pyrimidin-2-yl)amino)-9-azabicyclo[3.3.1]non-9-yl)(pyridin-4-yl)methanone] | 0.07 | 1.35 | 9.47 | 8.01 | 13.4 | 1.77 | 2 | 1240 | 3940 | 3.72 | 3 | 22300 | 40200 | 40300 | 0.49 | 1.34 | 1 | AUC(0-inf) ([2]; colon): 4520 ng·h/mL; half-life ([2]; colon): 1.69 h
6 | Cc1cc(Nc2nc(N[C@@H]3C[C@H]4CC[C@@H](C3)N4CCC#N)nc3c2cnn3C)n[nH]1 [Embodiment 295, 3-((3-exo)-3-((1-methyl-4-((5-methyl-1H-pyrazol-3-yl)amino)-1H-pyrazolo[3,4-d]pyrimidin-6-yl)amino)-8-azabicyclo[3.2.1]oct-8-yl)propionitrile] | 0.3 | 10.8 | 3.63 | 6.54 | 10.4 | 1.77 | 2 | 1030 | 3390 | 3.82 | 3 | 4300 | 10700 |  |  | 2.69 | 3 | 
7 | Cc1cc(Nc2nc(NC3CCN(CCC#N)CC3)nc3sccc23)n[nH]1 [Embodiment 301, 3-(4-((4-((5-methyl-1H-pyrazol-3-yl)amino)thieno[2,3-d]pyrimidin-2-yl)amino)piperidin-1-yl)propionitrile] | 1.64 | 0.45 | 1.26 | 69.4 | 143 | 1.65 | 1 | 1500 | 4240 | 4.74 | 5 | 21100 | 35300 | 35300 | 0.6 | 1.23 | 1 | AUC(0-inf) ([2]; plasma, blood): 145 ng·h/mL; half-life ([2]; plasma, blood): 1.07 h
